Assays:
[1] = tested on: Microsporum canis; experiment: Antifungal activity in vitro, resazurin growth inhibition screen: Microsporum canis; format: cell-based; settings: Microsporum canis B68128; read-out: Inf. B pIC50 (converted)
How it was run: (§1)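 In this broth screen, 10^3 cfu of each cryopreserved isolate met compound dilutions reaching 64 μM at most. Viability was read with resazurin.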

[2] = tested on: Trichophyton mentagrophytes; experiment: Antifungal activity in vitro, resazurin growth inhibition screen: Trichophyton mentagrophytes; format: cell-based; settings: Trichophyton mentagrophytes B70554; read-out: Inf. G pIC50 (converted)
How it was run: as §1

[3] = tested on: Trichophyton rubrum; experiment: Antifungal activity in vitro, resazurin growth inhibition screen: Trichophyton rubrum; format: cell-based; settings: Trichophyton rubrum B68183; read-out: Inf. C pIC50 (converted)
How it was run: as §1

[4] = tested on: Scedosporium apiospermum; experiment: Antifungal activity in vitro, resazurin growth inhibition screen: Scedosporium apiospermum; format: cell-based; settings: Scedosporium apiospermum IHEM3817; read-out: Inf. H pIC50 (converted)
How it was run: as §1

[5] = tested on: Scedosporium prolificans; experiment: Antifungal activity in vitro, resazurin growth inhibition screen: Scedosporium prolificans; format: cell-based; settings: Lomentospora prolificans; Scedosporium prolificans IHEM21157; read-out: Inf. I pIC50 (converted)
How it was run: as §1

[6] = tested on: Sporothrix schenkii; experiment: Antifungal activity in vitro, resazurin growth inhibition screen: Sporothrix schenkii; format: cell-based; settings: Sporothrix schenkii B62482; read-out: Inf. A pIC50 (converted)
How it was run: as §1

[7] = tested on: Aspergillus fumigatus; experiment: Antifungal activity in vitro, resazurin growth inhibition screen: Aspergillus fumigatus; format: cell-based; settings: Aspergillus fumigatus B42928; read-out: Inf. E pIC50 (converted)
How it was run: as §1

[8] = tested on: Candida parapsilosis; experiment: Antifungal activity in vitro, resazurin growth inhibition screen: Candida parapsilosis; format: cell-based; settings: Lodderomyces parapsilosis; Candida parapsilosis B66126; read-out: Inf. D pIC50 (converted)
How it was run: as §1

[9] = tested on: Cryptococcus neoformans; experiment: Antifungal activity in vitro, resazurin growth inhibition screen: Cryptococcus neoformans; format: cell-based; settings: Cryptococcus neoformans B66663; read-out: Inf. F pIC50 (converted)
How it was run: as §1

[10] = tested on: Rhizopus oryzae; experiment: Antifungal activity in vitro, resazurin growth inhibition screen: Rhizopus oryzae; format: cell-based; settings: Rhizopus arrhizus; Rhizopus oryzae IHEM5223; read-out: Inf. J pIC50 (converted)
How it was run: as §1

[11] = tested on: Rhizomucor miehei; experiment: Antifungal activity in vitro, resazurin growth inhibition screen: Rhizomucor miehei; format: cell-based; settings: Rhizomucor miehei IHEM13391; read-out: Inf. K pIC50 (converted)
How it was run: as §1

Row | SMILES | IC50 [1] [nM] | IC50 [2] [nM] | IC50 [3] [nM] | IC50 [4] [µM] | IC50 [5] [nM] | IC50 [6] [µM] | IC50 [7] [nM] | IC50 [8] [nM] | IC50 [9] [nM] | IC50 [10] [µM] | IC50 [11] [µM] | melting point
1 | Cl.Clc1cccc2c1CNC(c1ccc3c(c1)CCC3)c1cccn1-2 (stereo not drawn) [Compound 12, 7-chloro-4-(2,3-dihydro-1H-inden-5-yl)-5,6-dihydro-4H-pyrrolo[1,2-a][1,4]benzo-diazepine .HCl] | 380 | 58.9 | 138 | > 64.6 | > 64600 | 64.6 | 151 | 575 | 3020 | > 64.6 | > 64.6 | 242.7 to 243.5 °C
2 | Clc1cccc2c1CN=C(c1ccc3c(c1)CCC3)c1cccn1-2 [Compound 20, 7-chloro-4-(2,3-dihydro-1H-inden-5-yl)-6H-pyrrolo[1,2-a][1,4]benzodiazepine] | 129 |  | 70.8 | 8.91 | 851 | 2 | 269 | 339 | 380 | > 11.2 | 13.8 | 181.3 to 182.7 °C
3 | Clc1cccc2c1CN=C(c1ccc3c(c1)CCCC3)c1cccn1-2 [Compound 21, 7-chloro-4-(5,6,7,8-tetrahydro-2-naphthalenyl)-6H-pyrrolo[1,2-a][1,4]benzo-diazepine] | 490 | 603 | 170 | 0.12 | 39.8 | 1.38 | 46.8 | 1410 | 339 | 2 | 0.933 | 180 to 181.5 °C
4 | Clc1cc(Cl)c2c(c1)CN=C(c1ccc3c(c1)CCC3)c1cccn1-2 [Compound 25, 8,10-dichloro-4-(2,3-dihydro-1H-inden-5-yl)-6H-pyrrolo[1,2-a][1,4]benzodiazepine] | 832 | 380 | 794 | > 64.6 |  | 2 | 155 | > 64600 | 1000 | > 64.6 | 39.8 | 178.5 to 180.2 °C
5 | Clc1cccc2c1CN=C(c1ccc3c(c1)CCO3)c1cccn1-2 [Compound 35, 7-chloro-4-(2,3-dihydro-5-benzofuranyl)-6H-pyrrolo[1,2-a][1,4]benzodiazepine] | 1000 | 794 | 437 | 38.9 | 1290 | 14.1 | 2000 | 2000 | 5010 | > 64.6 | 53.7 | 206.4 to 208.9 °C
6 | Clc1cccc2c1CN=C(c1ccc3c(c1)OCC3)c1cccn1-2 [Compound 36, 7-chloro-4-(2,3-dihydro-6-benzofuranyl)-6H-pyrrolo[1,2-a][1,4]benzodiazepine] | 676 | 240 | 132 | 2.82 | 1200 | 12.9 | 2000 | 20900 | 50100 | > 64.6 | > 64.6 | 180.5 to 181.2 °C
7 | Clc1cc(Cl)c2c(c1)-n1cccc1C(c1ccc3c(c1)CCO3)=NC2 [Compound 45, 7,9-dichloro-4-(2,3-dihydro-5-benzofuranyl)-6H-pyrrolo[1,2-a][1,4]benzodiazepine] | 257 | 331 | 331 | 32.4 | 6170 | 3.02 | 1000 | 7940 | 1000 | > 64.6 | > 64.6 | 190 to 191.8 °C
8 | O=C1CCc2cc(C3=NCc4c(Cl)cccc4-n4cccc43)ccc21 [Compound 56, 5-(7-chloro-6H-pyrrolo[1,2-a][1,4]benzodiazepin-4-yl)-2,3-dihydro-1H-inden-1-one] | 170 | 562 | 182 | 0.447 | 110 | 2.24 | 363 | 2880 | 1320 | > 64.6 | 4.79 | 226.7 to 227.6 °C
9 | O=C1CCCc2cc(C3=NCc4c(Cl)cccc4-n4cccc43)ccc21 [Compound 58, 6-(7-chloro-6H-pyrrolo[1,2-a][1,4]benzodiazepin-4-yl)-3,4-dihydro-1(2H)-naphthalenone] | 166 | 324 | 204 | 5.89 | 9330 | 2.14 | 135 | > 64600 | 417 | 49 | 6.92 | 209.8 to 210.7 °C
10 | O=C1CCCc2cc(C3=NCc4ccc(Cl)cc4-n4cccc43)ccc21 [Compound 60, 6-(9-chloro-6H-pyrrolo[1,2-a][1,4]benzodiazepin-4-yl)-3,4-dihydro-1 (2H)-naphthalenone] | > 64600 | > 64600 | > 64600 |  |  | 30.2 | > 64600 | 3630 | 7080 |  |  | > 280 °C
11 | O=C1OCc2ccc(C3=NCc4c(Cl)cccc4-n4cccc43)cc21 [Compound 62, 6-(7-chloro-6H-pyrrolo[1,2-a][1,4]benzodiazepin-4-yl)-1(3H)-isobenzofuranone] | > 64600 | > 64600 | > 64600 |  |  | > 64.6 | > 64600 | > 64600 | > 64600 |  |  | 107.9 °C (dec.)
12 | O=C1OCc2ccc(C3=NCc4c(Cl)cc(Cl)cc4-n4cccc43)cc21 [Compound 64, 6-(7,9-dichloro-6H-pyrrolo[1,2-a][1,4]benzodiazepin-4-yl)-1 (3H)-isobenzofuranone] | > 64600 | > 64600 | > 64600 |  |  | > 64.6 | > 64600 | > 64600 | > 64600 |  |  | 210.5 to 212 °C
13 | Fc1cccc2c1CN=C(c1ccc3c(c1)CCC(F)(F)O3)c1cccn1-2 [Compound 70, 4-(2,2-difluoro-3,4-dihydro-2H-1-benzopyran-6-yl)-7-fluoro-6H-pyrrolo[1,2-a]-[1,4]benzodiazepine] | 64600 | > 64600 | > 64600 |  |  | > 64.6 | > 64600 | 759 | 955 |  |  | 158.9 to 159.3 °C
